Patent publication US20260137711A1, “COMBINATION THERAPY FOR CANCER” (NATIONAL UNIVERSITY OF IRELAND, GALWAY, priority 2022, published 2026)

Key:
MCF10A EditR cells = experiment: Pooled genome-wide CRISPR/Cas9 screen with XL413 (cell proliferation, sgRNA abundance, MAGeCK beta scores); type: cell-based, human; conditions: for XL413 beta score: 1.25 μM XL413, day 0 to day 24; for Differential beta score (Treatment − Control): XL413-treated minus untreated
Method: Supplemental FIG. 1: CRISPR/Cas9 screen: Cell proliferation curves, summary of sgRNA coverage, and genes of interest identified (a-c) Proliferation curves of MCF10A EditR cells expressing sgRNAs from CRISPR library modules I, II and III in the absence (untreated) or presence of 1.25 μM XL413. Data is from three independent counts of each sample ±standard deviation (SD). (d) DNA extracted from samples of the CRISPR/Cas9 screen, which were harvested on day 0 and after 20 or 24 days of growth in the absence (untreated) or presence of 1.25 μM XL413, respectively, was analysed by next generation sequencing. Sequence data was mapped to a CELLECTA genome-wide sgRNA reference library using the MAGeCKFlute pipeline. (d) The table summarises the total and missing number of sgRNAs, the calculated % sgRNA coverage and the number of missing genes.
A genome-wide CRIPSR/Cas9 loss of function screen identifies genes that affect proliferation rate in response to a CDC7 inhibitor In order to identify genes that change the rate of proliferation when DNA synthesis is mildly limited by CDC7 inhibition, we performed a CRISPR/Cas9 genome-wide knockout screen as outlined in FIG. 1a. Briefly, MCF10A EditR cells that stably express Cas9 were transduced with a lentiviral-sgRNA library targeting approximately 19,000 coding genes and then were either untreated or treated with 1.25 μM of selective ATP competitive CDC7 inhibitor, XL413 (Koltun et al., 2012). […] Next generation sequencing was then used to determine sgRNA abundance at day 0, day 20 untreated and day 24 XL413 treated cells. […] CRISPR/Cas9-mediated loss of function of genes involved in supporting proliferation in untreated cells or in response to CDC7 inhibition is expected to result in a decreased relative abundance of the corresponding sgRNAs in the cell population. […] When the genes were ranked according to the magnitude of the effect, CDK8, a gene that expresses a component of the CDK8/CDK19-CCNC-MED12-MED 13 mediator complex kinase-module (Dannappel et al., 2019; Fant and Taatjes, 2019; Menzl et al., 2019), came out as the top hit (FIG. 1b and Table 1, ranked 19012 out of 19012 genes).
MCF10A EditR cells (120×10^6 per module) were transduced with individual modules (Modules I, II and III) in the presence of 5 µg/ml polybrene at a Multiplicity of Infection (MoI) of 0.4 achieving ˜600-fold guide representation. After 24 hours, transduced cells were harvested, replated and selected with puromycin ([…]) for 6 days. Puromycin resistant cells were harvested and a sample of ˜30×10^6 cells taken for analysis by next generation sequencing (NGS) at the start of the screen (day 0). The remaining puromycin resistant cells from each module were cultured independently from each other in untreated and XL413 treated ([…]) experimental branches. Throughout the screen cell proliferation and viability were determined by cell counting on a LunaII automated cell counter (Logos Biosystems) using trypan blue exclusion. Cells were cultured, harvested, reseeded and retreated every 4 days in order to maintain ˜600-fold guide representation. Finally at day 20 for the untreated branch and at day 24 for the XL413-treated branche, cells were harvested and a sample of ˜30×10^6 cells taken for analysis by NGS.
FASTQ files obtained by NGS were analysed using the MAGeCKFlute pipeline (Wang et al., 2019) as outlined below. MAGeCK was used to perform adaptor trimming, mapping of trimmed sgRNAs and associated sequencing reads to the CELLECTA sgRNA reference library, and a quality control assessment of the sequencing quality and screen data. Following quality control inspection, sgRNA read count data from the day 0 vs day 20 untreated and day 0 vs day 24 XL413-treated (1.25 μM) conditions were modelled using a negative-binomial distribution by MAGeCK-MLE to calculate a beta score for each targeted gene. Negative control sgRNAs in the CELLECTA library were used by MAGeCK-MLE to normalize the read counts between samples. […]

MCF10A cells = experiment: Long-term cell proliferation assay, crystal violet staining; type: cell-based, human; conditions: 7 days
Method: (a and b) MCF10A cells were plated at equal low density and then either mock treated or treated with 31 nM BI-1347, in the presence or absence of XL413 at a doses of (a) 1.25 μM or (b) 10 μM over a 7 day period. Representative images of crystal violet-stained cells are shown alongside quantitation of crystal violet intensity normalised to the untreated control.
Briefly, MCF10A cells were mock-treated or treated in the continued presence of a dual-specificity CDK8/CDK19 inhibitor, BI-1347, in the presence or absence of XL413 at two different concentrations (1.25 μM and 10 μM) for a 7-day period. Relative cell proliferation was estimated by staining cells with crystal violet and measuring staining intensities. […] Importantly the addition of BI-1347 to XL413 caused a further reduction in cell number with staining intensity decreasing by 70% and 95% respectively.
MCF10A cells were seeded at 4,000 cells per well of a 6 well plate and after 24 hours were treated with inhibitors before being incubated for 7 days at 37° C. with 5% CO2. Media was removed from the cells which were then washed with PBS and air dried before being fixed with 100% methanol for 1 hour. Following removal of methanol the plates were air-dried, stained with crystal violet staining solution (0.2% crystal violet, 25% methanol) for 1 hour at room temperature, washed with ddH2O and air-dried. Plates were scanned using a HP Scanjet 4050, to generate images of crystal violet stained cells, and crystal violet staining intensity was acquired using the Odyssey infrared imaging system and Image Studio software (LI-COR Biosciences).

## Cl.O=c1[nH]c([C@@H]2CCCN2)nc2c1oc1ccc(Cl)cc12 [XL413]
MCF10A EditR cells; 1.25 μM XL413, cells expressing sgRNA library
  cell proliferation over the course of the screen: only mildly suppressed
MCF10A EditR cells; gene CCNC targeted by sgRNAs
  XL413 beta score: −1.0759
  Differential beta score (Treatment − Control): −0.3602
MCF10A EditR cells; gene CDK8 targeted by sgRNAs
  XL413 beta score: −1.6094
  Differential beta score (Treatment − Control): −1.4391
MCF10A EditR cells; gene CDK19 targeted by sgRNAs
  XL413 beta score: −0.2393
  Differential beta score (Treatment − Control): 0.0034
MCF10A EditR cells; gene MED12 targeted by sgRNAs
  XL413 beta score: −0.8276
  Differential beta score (Treatment − Control): 0.0928
MCF10A EditR cells; gene MED13 targeted by sgRNAs
  XL413 beta score: 0.0939
  Differential beta score (Treatment − Control): 0.0062
MCF10A EditR cells; gene RIF1 targeted by sgRNAs
  XL413 beta score: −0.0162
  Differential beta score (Treatment − Control): 0.7442
MCF10A cells; 1.25 μM XL413 alone
  relative intensity reduction (crystal violet): ~15%
MCF10A cells; 10 μM XL413 alone
  relative intensity reduction (crystal violet): 70%
